Source: patent US10238670B2, “9-aminomethyl minocycline compounds and methods of use thereof in urinary tract infection (UTI) treatment” (Paratek Pharmaceuticals, Inc., priority 2016, dated 2019)
In brackets after ≈: the same amount, converted by molar mass.

Columns and labels:
Assay in all cases: In vitro MIC, 2010 surveillance isolates
K. oxytoca = format: cell-based; set-up: MIC90: unit: µg/mL
A. baumanii = format: cell-based; settings: for % R (resistance): CLSI breakpoints
K. pneumoniae ESBL− = format: cell-based, Klebsiella pneumoniae
E. coli ESBL− = format: cell-based, Escherichia coli
E. cloacae CeftazS = format: cell-based
E. coli ESBL+ = format: cell-based, Escherichia coli
K. pneumoniae ESBL+ = format: cell-based, Klebsiella pneumoniae
Acinetobacter spp = format: cell-based; settings: for % R (resistance): CLSI breakpoints
E. cloacae CeftazR = format: cell-based
Enterobacter spp = format: cell-based

With `CO/N=C(\C(=O)N[C@@H]1C(=O)N2C(C(=O)[O-])=C(C[N+]3(C)CCCC3)CS[C@H]12)c1csc(N)n1` [Cefepime] the “% R (resistance)” value (K. oxytoca; Asia/Pac, Eucast breakpoints) was 23.5%, the MIC90 (K. oxytoca; Asia/Pac, N=17) was over 16 mg/L and the “% R (resistance)” value (K. oxytoca; Europe, Eucast breakpoints) was 4.4%. The MIC90 (K. oxytoca; Europe, N=158) was 1 mg/L (≈ 2.08 µM), the MIC90 (K. oxytoca; L. Amer, N=25) was >16 (16) and the “% R (resistance)” value (K. oxytoca; N America, CLSI breakpoints) was 0%. The MIC90 (K. oxytoca; N America, N=177) was 0.25 mg/L (≈ 0.52 µM), the MIC90 (A. baumanii; Asia/Pac, N=275) was over 16 mg/L and the MIC90 (A. baumanii; Europe, N=145) was over 16 mg/L. For the same compound, the “% R (resistance)” value (A. baumanii; L. Amer) was 78.9%, the MIC90 (A. baumanii; L. Amer, N=275) was over 16 mg/L and the “% R (resistance)” value (A. baumanii; N America) was 61.7%. For the same compound, the MIC90 (A. baumanii; N America, N=154) was over 16 mg/L, the “% R (resistance)” value (K. pneumoniae ESBL−; Asia/Pac, Eucast breakpoints) was 0% and the MIC90 (K. pneumoniae ESBL−; Asia/Pac, N=189) was at most 0.12 mg/L. The “% R (resistance)” value (K. pneumoniae ESBL−; Europe, Eucast breakpoints) was 0%, the MIC90 (K. pneumoniae ESBL−; Europe, N=361) was at most 0.12 mg/L and the “% R (resistance)” value (K. pneumoniae ESBL−; L. Amer, CLSI breakpoints) was 0%. The MIC90 (K. pneumoniae ESBL−; L. Amer, N=160) was at most 0.12 mg/L, the “% R (resistance)” value (K. pneumoniae ESBL−; N America, CLSI breakpoints) was 0% and the MIC90 (K. pneumoniae ESBL−; N America, N=671) was at most 0.12 mg/L. For the same compound, the “% R (resistance)” value (E. coli ESBL−; Asia/Pac, Eucast breakpoints) was 0%, the MIC90 (E. coli ESBL−; Asia/Pac, N=282) was 1 mg/L (≈ 2.08 µM) and the “% R (resistance)” value (E. coli ESBL−; Europe, Eucast breakpoints) was 0.1%. For the same compound, the MIC90 (E. coli ESBL−; Europe, N=1533) was at most 0.12 mg/L, the “% R (resistance)” value (E. coli ESBL−; L. Amer, CLSI breakpoints) was 0% and the MIC90 (E. coli ESBL−; L. Amer, N=389) was at most 0.12 mg/L. The “% R (resistance)” value (E. coli ESBL−; N America, CLSI breakpoints) was 0%, the MIC90 (E. coli ESBL−; N America, N=1172) was at most 0.12 mg/L and the “% R (resistance)” value (E. cloacae CeftazS; Asia/Pac, Eucast breakpoints) was 2%. The MIC90 (E. cloacae CeftazS; Asia/Pac, N=100) was at most 0.12 mg/L, the “% R (resistance)” value (E. cloacae CeftazS; Europe, Eucast breakpoints) was 1.1% and the MIC90 (E. cloacae CeftazS; Europe, N=183) was 0.25 mg/L (≈ 0.52 µM). The “% R (resistance)” value (E. cloacae CeftazS; L. Amer, CLSI breakpoints) was 10.5%, the MIC90 (E. cloacae CeftazS; L. Amer, N=57) was over 16 mg/L and the “% R (resistance)” value (E. cloacae CeftazS; N America, CLSI breakpoints) was 0%. For the same compound, the MIC90 (E. cloacae CeftazS; N America, N=210) was at most 0.12 mg/L, the “% R (resistance)” value (E. coli ESBL+; Asia/Pac, Eucast breakpoints) was 73.5% and the MIC90 (E. coli ESBL+; Asia/Pac, N=219) was over 16 mg/L. For the same compound, the “% R (resistance)” value (E. coli ESBL+; Europe, Eucast breakpoints) was 69%, the MIC90 (E. coli ESBL+; Europe, N=274) was over 16 mg/L and the “% R (resistance)” value (E. coli ESBL+; L. Amer, CLSI breakpoints) was 47%. For the same compound, the MIC90 (E. coli ESBL+; L. Amer, N=168) was over 16 mg/L, the “% R (resistance)” value (E. coli ESBL+; N America, CLSI breakpoints) was 38.8% and the MIC90 (E. coli ESBL+; N America, N=134) was over 16 mg/L. For the same compound, the “% R (resistance)” value (K. pneumoniae ESBL+; Asia/Pac, Eucast breakpoints) was 65.3%, the MIC90 (K. pneumoniae ESBL+; Asia/Pac, N=124) was over 16 mg/L and the “% R (resistance)” value (K. pneumoniae ESBL+; Europe, Eucast breakpoints) was 76.8%. The MIC90 (K. pneumoniae ESBL+; Europe, N=151) was over 16 mg/L, the “% R (resistance)” value (K. pneumoniae ESBL+; L. Amer, CLSI breakpoints) was 69.4% and the MIC90 (K. pneumoniae ESBL+; L. Amer, N=209) was over 16 mg/L. The “% R (resistance)” value (K. pneumoniae ESBL+; N America, CLSI breakpoints) was 43.5%, the MIC90 (K. pneumoniae ESBL+; N America, N=108) was over 16 mg/L and the MIC90 (Acinetobacter spp; Europe, N=43) was over 16 mg/L. For the same compound, the “% R (resistance)” value (Acinetobacter spp; L. Amer) was 55.6%, the “% R (resistance)” value (Acinetobacter spp; N America) was 16.7% and the MIC90 (Acinetobacter spp; N America, N=42) was over 16 mg/L. For the same compound, the “% R (resistance)” value (E. cloacae CeftazR; Asia/Pac, Eucast breakpoints) was 38.1%, the MIC90 (E. cloacae CeftazR; Asia/Pac, N=63) was over 16 mg/L and the “% R (resistance)” value (E. cloacae CeftazR; Europe, Eucast breakpoints) was 25%. The MIC90 (E. cloacae CeftazR; Europe, N=72) was over 16 mg/L, the “% R (resistance)” value (E. cloacae CeftazR; L. Amer, CLSI breakpoints) was 26.2% and the MIC90 (E. cloacae CeftazR; L. Amer, N=42) was over 16 mg/L. The “% R (resistance)” value (E. cloacae CeftazR; N America, CLSI breakpoints) was 6.5%, the MIC90 (E. cloacae CeftazR; N America, N=77) was 16 mg/L (≈ 33.3 µM) and the “% R (resistance)” value (Enterobacter spp; Asia/Pac, Eucast breakpoints) was 5.8%. The MIC90 (Enterobacter spp; Asia/Pac, N=52) was 1 mg/L (≈ 2.08 µM), the “% R (resistance)” value (Enterobacter spp; Europe, Eucast breakpoints) was 2.4% and the MIC90 (Enterobacter spp; Europe, N=82) was 1 mg/L (≈ 2.08 µM). The “% R (resistance)” value (Enterobacter spp; L. Amer, CLSI breakpoints) was 14.3%, the MIC90 (Enterobacter spp; L. Amer, N=42) was over 16 mg/L and the “% R (resistance)” value (Enterobacter spp; N America, CLSI breakpoints) was 1%. It also gave an MIC90 (Enterobacter spp; N America, N=101) of 0.5 mg/L (≈ 1.04 µM).

For `CC(C)(O/N=C(\C(=O)N[C@@H]1C(=O)N2C(C(=O)[O-])=C(C[n+]3ccccc3)CS[C@H]12)c1csc(N)n1)C(=O)O` [ceftazidime], the “resistance rates for ESBL-producing clinical isolates” value (E. coli ESBL+; E. coli) was 50%.
